In patent US7101878B1 (Agouron Pharmaceuticals, Inc., priority 1998, dated 2006):
Like-named read-outs stand apart in the source and are kept apart here.

Assays:
mouse GnRH receptor = molecular target: T1, mouse GnRH receptor (Mus musculus, UniProt Q01776); assay: Radioligand binding, 125I-GnRH-A, 293 cells expressing mouse GnRH receptors; conditions: for remaining activity at 10 µM: 1 h, substrate remaining, 10 uM compound, closer to zero = closer to 100% inhibition, read-out: S%R 10 uM mGnRHR; for inhibition at 10 µM: read-out: % Inhib. @ 10 uM mGnRH
T1 construct: expressed in transfected cells; host or cells: 293 cells
T1 sequence (Q01776 1-327): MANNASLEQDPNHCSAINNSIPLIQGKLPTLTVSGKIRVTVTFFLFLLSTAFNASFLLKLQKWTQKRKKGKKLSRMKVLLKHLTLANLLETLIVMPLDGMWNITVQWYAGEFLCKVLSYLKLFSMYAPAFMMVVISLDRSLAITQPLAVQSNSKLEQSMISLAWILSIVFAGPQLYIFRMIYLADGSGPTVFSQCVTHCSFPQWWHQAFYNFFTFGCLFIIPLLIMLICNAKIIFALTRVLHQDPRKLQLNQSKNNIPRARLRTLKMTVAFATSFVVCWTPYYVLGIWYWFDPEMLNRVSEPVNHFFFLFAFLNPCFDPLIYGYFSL
Description: All compounds were diluted in 1% DMSO (final assay concentration) in binding assay buffer. […] Reactions were terminated by rapid filtration onto 96-well Packard GF/C filters soaked in 0.1% polyethyleneimine. Filters were washed three times with PBS buffer, dried and counted on a Packard Topcount by liquid scintillation counting.
Assay conditions were identical for assessing compound activities at other species. […] IC50 values for control peptides and test compounds were calculated utilizing GraphPad Prism™ software.
The reaction mixture was vortexed and incubated for 1 min at room temperature. After one min, the mixture was vortexed and allowed to incubate for an additional minute. 2 ml of 0.5 M acetic acid/1% BSA was added to the reaction tube and the mixture was added to a C18 Sep-Pak cartridge. The cartridge was washed with subsequent washes of 5 ml H2O and 5 ml 0.5M acetic acid and then eluted with 5×1 ml of 60% CH3CN/40% 0.5M acetic acid. The eluate was diluted with 3× volume of HPLC buffer A (0.1% TFA in H2O) and loaded onto a C18 column. […] The radioactive fractions (750 ed/fraction) are collected into clean polypropylene tubes containing 100 μl of 10% BSA. Fractions were assessed for biological activity by radioligand binding.

human GnRH receptor = molecular target: T2, human GnRH receptor (Homo sapiens, UniProt P30968); assay: Radioligand binding, 125I-GnRH-A displacement, membranes of HEK 293 cells with human GnRH receptor
T2 construct: expressed in transfected cells; host or cells: HEK 293 (hGnRH-R/293, from Dr. Stuart Sealfon)
T2 sequence (P30968 1-328): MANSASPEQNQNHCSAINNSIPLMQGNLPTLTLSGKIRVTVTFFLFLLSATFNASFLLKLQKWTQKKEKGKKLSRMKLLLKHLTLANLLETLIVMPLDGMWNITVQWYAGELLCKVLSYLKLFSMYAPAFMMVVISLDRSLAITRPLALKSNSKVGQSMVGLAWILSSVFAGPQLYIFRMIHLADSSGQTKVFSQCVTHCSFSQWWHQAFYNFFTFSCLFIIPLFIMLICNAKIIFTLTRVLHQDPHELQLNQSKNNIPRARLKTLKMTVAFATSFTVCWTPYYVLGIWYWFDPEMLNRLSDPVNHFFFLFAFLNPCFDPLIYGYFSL
How it was run: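 After filtration and PBS washes, bound radioactivity was counted by scintillation and IC50 derived. Identical conditions applied for non-human receptors.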

[1] = 1 uM, read-out: % Inhib. @ 1 uM hGnRH
[2] = 1 h, repeat of % Inhib. at 1 uM, read-out: Repeats @ 1 uM hGnRH

remaining activity at 10 µM (mouse GnRH receptor) [%]	inhibition at 10 µM (mouse GnRH receptor) [%]	Structure (SMILES)	also measured
7		Cc1cc2c(cc1Cc1ccc(C(=O)NCC(=O)Nc3ccc([N+](=O)[O-])cc3)o1)C(C)(C)CCC2(C)C [Compound 464]	
10		Cc1cc2c(cc1Cc1ccc(C(=O)N3CC(C)CC(C)C3)o1)C(C)(C)CCC2(C)C (centres unmarked) [Compound 579]	
0		CCN1CC(N(Cc2ccccc2C#N)C(=O)c2ccc(Cc3cc4c(cc3C)C(C)(C)CCC4(C)C)o2)CN1CC [Compound 646]	
12		Cc1cc2c(cc1Cc1ccc(C(=O)N(C)C3CCN(C)CC3)o1)C(C)(C)CCC2(C)C [Compound 548]	
	73	Cc1cc2c(cc1Cc1ccc(C(=O)N3CCN(CCN4CCOCC4)CC3)o1)C(C)(C)CCC2(C)C	
	82	Cc1cc2c(cc1Cc1ccc(C(=O)N3CCC(NC(=O)OC(C)(C)C)C3)o1)C(C)(C)CCC2(C)C (centres unmarked) [drawing 1544]	
10		Cc1cc2c(cc1Cc1ccc(C(=O)NC(C)(C)CO)o1)C(C)(C)CCC2(C)C [Compound 633]	
	69	Cc1cc2c(cc1Cc1ccc(C(=O)N(C)CC(O)CO)o1)C(C)(C)CCC2(C)C (centres unmarked)	
	75	Cc1cc2c(cc1Cc1ccc(C(=O)NC(C)(C)C(=O)OC(C)(C)C)o1)C(C)(C)CCC2(C)C	
57		Cc1cc2c(cc1Cc1ccc(C(=O)NC(C)c3ccc([N+](=O)[O-])cc3)o1)C(C)(C)CCC2(C)C (centres unmarked) [Compound 639]	
	30	Cc1cc2c(cc1Cc1ccc(C(=O)N(CCC(c3ccccc3)c3ccccc3)C(C)c3ccccc3)o1)C(C)(C)CCC2(C)C (centres unmarked)	
	97	COC(=O)C1CCCN1C(=O)c1ccc(Cc2cc3c(cc2C)C(C)(C)CCC3(C)C)o1 (centres unmarked) [drawing 1298]	
	97	COC(OC)C(C)NC(=O)c1ccc(Cc2cc3c(cc2C)C(C)(C)CCC3(C)C)o1 (centres unmarked) [drawing 1589]	
2		Cc1cc2c(cc1Cc1ccc(C(=O)NCCCCCO)o1)C(C)(C)CCC2(C)C [Compound 593]	
	88	Cc1cc2c(cc1Cc1ccc(C(=O)N(CCC#N)C3CCCC3)o1)C(C)(C)CCC2(C)C	
	100	Cc1cc2c(cc1Cc1ccc(C(=O)N(CCCN3CCN(C)CC3)Cc3ccc(OCCCN(C)C)cc3)o1)C(C)(C)CCC2(C)C	
-4		Cc1cc2c(cc1Cc1ccc(C(=O)N3CCC(CCCC4CCN(CCO)CC4)CC3)o1)C(C)(C)CCC2(C)C [Compound 600]	
17		Cc1cc2c(cc1Cc1ccc(C(=O)NCCc3c[nH]c4ccc(O)cc34)o1)C(C)(C)CCC2(C)C [Compound 678]	
	76	CCC(CC)NC(=O)c1ccc(Cc2cc3c(cc2C)C(C)(C)CCC3(C)C)o1 [drawing 1546]	
	103	Cc1cc2c(cc1Cc1ccc(C(=O)N(CCCN3CCN(C)CC3)Cc3ccc(F)cc3)o1)C(C)(C)CCC2(C)C [drawing 1490]	
		Cc1cc2c(cc1Cc1ccc(C(=O)NCCc3ccc(Cl)c(Cl)c3)o1)C(C)(C)CCC2(C)C	inhibition at 1 µM (human GnRH receptor; [1]): -5%; inhibition at 1 µM (human GnRH receptor; [2]): 8%
		Cc1cc2c(cc1Cc1ccc(C(=O)NC(c3ccccc3)C(O)c3ccccc3)o1)C(C)(C)CCC2(C)C (centres unmarked) [Compound 403]	remaining activity at 1 µM (human GnRH receptor; 1 h, substrate remaining, 1 uM compound, closer to zero = closer to 100% inhibition, read-out: S%R 1 uM hGnRHR): 44%
		Cc1cc2c(cc1Cc1ccc(C(=O)N3CCN(c4ccc(Cl)c(Cl)c4)CC3)o1)C(C)(C)CCC2(C)C	inhibition at 1 µM (human GnRH receptor; [1]): -20%; inhibition at 1 µM (human GnRH receptor; [2]): -7%
		Cc1cc2c(cc1Cc1ccc(C(=O)N(C)[C@H](C)[C@H](O)c3ccccc3)o1)C(C)(C)CCC2(C)C	inhibition at 1 µM (human GnRH receptor; [1]): -10%; inhibition at 1 µM (human GnRH receptor; [2]): -6%
		Cc1ccc(CCNC(=O)c2ccc(Cc3cc4c(cc3C)C(C)(C)CCC4(C)C)o2)cc1 [drawing 1193]	inhibition at 1 µM (human GnRH receptor; [1]): 48%; inhibition at 1 µM (human GnRH receptor; [2]): 52%
